Calls of active or inactive are those of the source. The rule behind the calls is not given here.
Legend:
[1] = tested on: N2a; assay: Induction of apoptosis in mouse Neuro2a cells assessed as necrotic cells at 1 uM incubated for 24 hrs by Annexin V-FITC/PI staining based analysis (reference value: 4.33 %); format: functional
[2] = tested on: HepG2; assay: Induction of apoptosis in human HepG2 cells assessed as fold increase in late apoptotic cells at 1 uM incubated for 24 hrs by Annexin V-FITC/PI staining based flow cytometric analysis; format: functional
[3] = tested on: HepG2; assay: Induction of cell cycle arrest in human HepG2 cells assessed as accumulation of cells at G2/M phase at 0.1 uM incubated for 24 hrs by flow cytometric analysis (reference value: 6.7 %); format: functional
[4] = tested on: N2a; assay: Induction of apoptosis in mouse Neuro2a cells assessed as late apoptotic cells at 0.1 uM incubated for 24 hrs by Annexin V-FITC/PI staining based analysis (reference value: 0.81 %); format: functional
[5] = tested on: HCT-116; assay: Induction of cell cycle arrest in human HCT-116 cells assessed as accumulation of cells at G0/G1 phase at 0.1 uM incubated for 24 hrs by flow cytometric analysis (reference value: 90.2 %); format: functional
[6] = tested on: HepG2; assay: Induction of apoptosis in human HepG2 cells assessed as late apoptotic cells at 1 uM incubated for 24 hrs by Annexin V-FITC/PI staining based flow cytometric analysis (reference value: 2.05 %); format: functional
[7] = tested on: HCT-116; assay: Induction of cell cycle arrest in human HCT-116 cells assessed as accumulation of cells at G0/G1 phase at 1 uM incubated for 24 hrs by flow cytometric analysis (reference value: 90.2 %); format: functional
[8] = tested on: HepG2; assay: Cytotoxicity against human HepG2 cells assessed as inhibition of cell proliferation AT 0.1 to 10 uM incubated for 24 hrs by MTT assay; format: functional, cell-based; details: dose 0.1-10 µM
[9] = tested on: HCT-116; assay: Induction of apoptosis in human HCT-116 cells assessed as necrotic cells at 1 uM incubated for 24 hrs by Annexin V-FITC/PI staining based flow cytometric analysis (reference value: 1.45 %); format: functional
[10] = tested on: HepG2; assay: Induction of apoptosis in human HepG2 cells assessed as fold increase in early apoptotic cells at 1 uM incubated for 24 hrs by Annexin V-FITC/PI staining based flow cytometric analysis; format: functional
[11] = tested on: N2a; assay: Induction of apoptosis in mouse Neuro2a cells assessed as fold increase in early apoptotic cells at 1 uM incubated for 24 hrs by Annexin V-FITC/PI staining based analysis; format: functional
[12] = tested on: HepG2; assay: Induction of apoptosis in human HepG2 cells assessed as viable cells at 0.1 uM incubated for 24 hrs by Annexin V-FITC/PI staining based flow cytometric analysis (reference value: 90.08 %); format: functional; details: read-out: Activity
[13] = tested on: HCT-116; assay: Induction of apoptosis in human HCT-116 cells assessed as viable cells at 0.1 uM incubated for 24 hrs by Annexin V-FITC/PI staining based flow cytometric analysis (reference value: 90.50 %); format: functional; details: read-out: Activity
[14] = tested on: HCT-116; assay: Induction of apoptosis in human HCT-116 cells assessed as late apoptotic cells at 0.1 uM incubated for 24 hrs by Annexin V-FITC/PI staining based flow cytometric analysis (reference value: 6.15 %); format: functional
[15] = tested on: HCT-116; assay: Induction of apoptosis in human HCT-116 cells assessed as early apoptotic cells at 1 uM incubated for 24 hrs by Annexin V-FITC/PI staining based flow cytometric analysis (reference value: 1.90 %); format: functional
[16] = tested on: HCT-116; assay: Induction of apoptosis in human HCT-116 cells assessed as late apoptotic cells at 1 uM incubated for 24 hrs by Annexin V-FITC/PI staining based flow cytometric analysis (reference value: 6.15 %); format: functional
[17] = tested on: HCT-116; assay: Induction of apoptosis in human HCT-116 cells assessed as early apoptotic cells at 0.1 uM incubated for 24 hrs by Annexin V-FITC/PI staining based flow cytometric analysis (reference value: 1.90 %); format: functional
[18] = tested on: N2a; assay: Induction of apoptosis in mouse Neuro2a cells assessed as viable cells at 1 uM incubated for 24 hrs by Annexin V-FITC/PI staining based analysis (reference value: 91.70 %); format: functional; details: read-out: Activity
[19] = tested on: N2a; assay: Induction of apoptosis in mouse Neuro2a cells assessed as late apoptotic cells at 1 uM incubated for 24 hrs by Annexin V-FITC/PI staining based analysis (reference value: 0.81 %); format: functional
[20] = tested on: N2a; assay: Cytotoxicity against mouse Neuro2a cells assessed as inhibition of cell proliferation at 0.1 to 10 uM incubated for 24 hrs by MTT assay; format: functional, cell-based; details: dose 0.1-10 µM
[21] = tested on: N2a; assay: Induction of apoptosis in mouse Neuro2a cells assessed as fold increase in late apoptotic cells at 1 uM incubated for 24 hrs by Annexin V-FITC/PI staining based analysis; format: functional
[22] = tested on: HepG2; assay: Induction of apoptosis in human HepG2 cells assessed as necrotic cells at 1 uM incubated for 24 hrs by Annexin V-FITC/PI staining based flow cytometric analysis (reference value: 3.02 %); format: functional
[23] = tested on: HepG2; assay: Induction of cell cycle arrest in human HepG2 cells assessed as accumulation of cells at S phase at 0.1 uM incubated for 24 hrs by flow cytometric analysis (reference value: 27.8 %); format: functional
[24] = tested on: N2a; assay: Cytotoxicity against mouse Neuro2a cells assessed as inhibition of cell proliferation incubated for 24 hrs by MTT assay; format: functional, cell-based
[25] = tested on: HCT-116; assay: Cytotoxicity against human HCT-116 cells assessed as inhibition of cell proliferation at 0.1 to 10 uM incubated for 24 hrs by MTT assay; format: functional, cell-based; details: dose 0.1-10 µM
[26] = tested on: N2a; assay: Induction of cell cycle arrest in mouse Neuro2a cells assessed as accumulation of cells at G2/M phase at 0.1 uM incubated for 24 hrs by flow cytometric analysis (reference value: 8.0 %); format: functional
[27] = tested on: HepG2; assay: Induction of apoptosis in human HepG2 cells assessed as early apoptotic cells at 0.1 uM incubated for 24 hrs by Annexin V-FITC/PI staining based flow cytometric analysis (reference value: 4.85 %); format: functional
[28] = tested on: HCT-116; assay: Induction of apoptosis in human HCT-116 cells assessed as necrotic cells at 0.1 uM incubated for 24 hrs by Annexin V-FITC/PI staining based flow cytometric analysis (reference value: 1.45 %); format: functional
[29] = tested on: HCT-116; assay: Cytotoxicity against human HCT-116 cells assessed as inhibition of cell proliferation incubated for 24 hrs by MTT assay; format: functional, cell-based; details: HCT-116, 24 h
[30] = tested on: N2a; assay: Induction of cell cycle arrest in mouse Neuro2a cells assessed as accumulation of cells at S phase at 1 uM incubated for 24 hrs by flow cytometric analysis (reference value: 30.5 %); format: functional
[31] = tested on: HCT-116; assay: Induction of apoptosis in human HCT-116 cells assessed as fold increase in late apoptotic cells at 1 uM incubated for 24 hrs by Annexin V-FITC/PI staining based analysis; format: functional
[32] = tested on: N2a; assay: Induction of apoptosis in mouse Neuro2a cells assessed as early apoptotic cells at 1 uM incubated for 24 hrs by Annexin V-FITC/PI staining based analysis (reference value: 3.17 %); format: functional
[33] = tested on: N2a; assay: Induction of apoptosis in mouse Neuro2a cells assessed as viable cells at 0.1 uM incubated for 24 hrs by Annexin V-FITC/PI staining based analysis (reference value: 91.70 %); format: functional; details: read-out: Activity
[34] = tested on: HepG2; assay: Induction of apoptosis in human HepG2 cells assessed as late apoptotic cells at 0.1 uM incubated for 24 hrs by Annexin V-FITC/PI staining based flow cytometric analysis (reference value: 2.05 %); format: functional
[35] = tested on: HepG2; assay: Induction of cell cycle arrest in human HepG2 cells assessed as accumulation of cells at G0/G1 phase at 1 uM incubated for 24 hrs by flow cytometric analysis (reference value: 66.4 %); format: functional
[36] = tested on: HCT-116; assay: Induction of cell cycle arrest in human HCT-116 cells assessed as accumulation of cells at S phase at 0.1 uM incubated for 24 hrs by flow cytometric analysis (reference value: 19.2 %); format: functional
[37] = tested on: N2a; assay: Induction of cell cycle arrest in mouse Neuro2a cells assessed as accumulation of cells at S phase at 0.1 uM incubated for 24 hrs by flow cytometric analysis (reference value: 30.5 %); format: functional
[38] = tested on: HepG2; assay: Induction of cell cycle arrest in human HepG2 cells assessed as accumulation of cells at G0/G1 phase at 0.1 uM incubated for 24 hrs by flow cytometric analysis (reference value: 66.4 %); format: functional
[39] = tested on: HepG2; assay: Induction of cell cycle arrest in human HepG2 cells assessed as accumulation of cells at S phase at 1 uM incubated for 24 hrs by flow cytometric analysis (reference value: 27.8 %); format: functional
[40] = tested on: HepG2; assay: Induction of apoptosis in human HepG2 cells assessed as early apoptotic cells at 1 uM incubated for 24 hrs by Annexin V-FITC/PI staining based flow cytometric analysis (reference value: 4.85 %); format: functional
[41] = tested on: HepG2; assay: Induction of apoptosis in human HepG2 cells assessed as viable cells at 1 uM incubated for 24 hrs by Annexin V-FITC/PI staining based flow cytometric analysis (reference value: 90.08 %); format: functional; details: read-out: Activity
[42] = tested on: HepG2; assay: Induction of apoptosis in human HepG2 cells assessed as necrotic cells at 0.1 uM incubated for 24 hrs by Annexin V-FITC/PI staining based flow cytometric analysis (reference value: 3.02 %); format: functional
[43] = tested on: N2a; assay: Induction of apoptosis in mouse Neuro2a cells assessed as necrotic cells at 0.1 uM incubated for 24 hrs by Annexin V-FITC/PI staining based analysis (reference value: 4.33 %); format: functional
[44] = tested on: N2a; assay: Induction of apoptosis in mouse Neuro2a cells assessed as early apoptotic cells at 0.1 uM incubated for 24 hrs by Annexin V-FITC/PI staining based analysis (reference value: 3.17 %); format: functional
[45] = tested on: N2a; assay: Induction of cell cycle arrest in mouse Neuro2a cells assessed as accumulation of cells at G0/G1 phase at 0.1 uM incubated for 24 hrs by flow cytometric analysis (reference value: 61.5 %); format: functional
[46] = tested on: N2a; assay: Induction of cell cycle arrest in mouse Neuro2a cells assessed as accumulation of cells at G2/M phase at 1 uM incubated for 24 hrs by flow cytometric analysis (reference value: 8.0 %); format: functional
[47] = tested on: HCT-116; assay: Induction of apoptosis in human HCT-116 cells assessed as viable cells at 1 uM incubated for 24 hrs by Annexin V-FITC/PI staining based flow cytometric analysis (reference value: 90.50 %); format: functional; details: read-out: Activity
[48] = tested on: HepG2; assay: Induction of cell cycle arrest in human HepG2 cells assessed as accumulation of cells at G2/M phase at 1 uM incubated for 24 hrs by flow cytometric analysis (reference value: 27.8 %); format: functional
[49] = tested on: HCT-116; assay: Induction of cell cycle arrest in human HCT-116 cells assessed as accumulation of cells at G2/M phase at 1 uM incubated for 24 hrs by flow cytometric analysis (reference value: 30.6 %); format: functional
[50] = tested on: HCT-116; assay: Induction of cell cycle arrest in human HCT-116 cells assessed as accumulation of cells at G2/M phase at 0.1 uM incubated for 24 hrs by flow cytometric analysis (reference value: 30.6 %); format: functional
[51] = tested on: N2a; assay: Induction of cell cycle arrest in mouse Neuro2a cells assessed as accumulation of cells at G0/G1 phase at 1 uM incubated for 24 hrs by flow cytometric analysis (reference value: 61.5 %); format: functional
[52] = tested on: HCT-116; assay: Induction of cell cycle arrest in human HCT-116 cells assessed as accumulation of cells at S phase at 1 uM incubated for 24 hrs by flow cytometric analysis (reference value: 19.2 %); format: functional
[53] = tested on: HCT-116; assay: Induction of apoptosis in human HCT-116 cells assessed as fold increase in early apoptotic cells at 1 uM incubated for 24 hrs by Annexin V-FITC/PI staining based analysis; format: functional

CC(=O)CCCCC[C@@H](O)[C@H](C)C[C@H](C)CC[C@@H]1O[C@H]1C[C@@H]1CC[C@@H](/C=C/C=C/C[C@H](O)C[C@H]2C=C[C@@H](C=C(C)C)O2)O1
Activity [1]: 2.85%
fold change (FC) [2]: 10
Activity [3]: 10.5%
Activity [4]: 7.2%
Activity [5]: 48.4%
Activity [6]: 20.59%
Activity [7]: 6.8%
Activity [8]: Active
Activity [9]: 18.45%
fold change (FC) [10]: 5.8
fold change (FC) [11]: 5.5
viability at 0.1 µM [12]: 52.2%
viability at 0.1 µM [13]: 75.2%
Activity [14]: 14.55%
Activity [15]: 5.15%
Activity [16]: 17.52%
Activity [17]: 4.9%
viability at 1 µM [18]: 55.1%
Activity [19]: 24.75%
Activity [20]: Active
fold change (FC) [21]: 30.7
Activity [22]: 1.72%
Activity [23]: 36%
IC50 [24]: 2.8 µM
Activity [25]: Active
Activity [26]: 10.4%
Activity [27]: 30.92%
Activity [28]: 5.4%
IC50 [29]: 4.4 µM
Activity [30]: 43.1%
fold change (FC) [31]: 2.9
Activity [32]: 17.3%
viability at 0.1 µM [33]: 76%
Activity [34]: 15.02%
Activity [35]: 52.3%
Activity [36]: 18.7%
Activity [37]: 38.1%
Activity [38]: 54.5%
Activity [39]: 34.7%
Activity [40]: 27.87%
viability at 1 µM [41]: 49.8%
Activity [42]: 1.88%
Activity [43]: 1.16%
Activity [44]: 15.67%
Activity [45]: 51.5%
Activity [46]: 13.7%
viability at 1 µM [47]: 58.5%
Activity [48]: 13%
Activity [49]: 27.1%
Activity [50]: 31.9%
Activity [51]: 43.2%
Activity [52]: 26%
fold change (FC) [53]: 2.7
